Columns and labels:
[1] = system: citric acid-induced experimental bronchitis; test: Experimental bronchitis due to citric acid in the guinea-pig; assay type: in vivo, spotted guinea-pigs, Morini strain; design: key to Microscopic Examination (Table 12), significance vs. controls (S) / Visualization of the bronchial tract, significance vs. controls (S) / Microscopic Examination (Table 14), significance vs. controls (S): h.s.: highly significant; Microscopic Examination score (Table 12; E, mean ± standard error) / Visualization of the bronchial tract score (E, mean ± standard error) / Microscopic Examination score (Table 14; E, mean ± standard error): scale not given here; conditions: 50 mg/kg; for Microscopic Examination score (Table 12; E, mean ± standard error): control 4.00 ± 0.25; for Microscopic Examination score (Table 14; E, mean ± standard error): control 3.00 ± 0.00; for Visualization of the bronchial tract score (E, mean ± standard error): control 2.83 ± 0.16
Description: Twenty-four spotted guinea-pigs, Morini strain, bodyweight 450 grams approximately, were used for the investigation, subdivided into 4 groups, each consisting of 6 animals, subjected to the following treatments:
Group 1: poisoning treatment with citric acid
The poisoning was made introducing the experimental animals into tight-sealed plexiglass cages containing a solution of 7.5 percent citric acid for 15 minutes daily, 6 days weekly, for 4 weeks.
The animals were sacrificed on the day after the last application, and the lungs were subjected to the same treatments and to the same assessments performed with the same scores already used in the case of the rat.

[2] = system: mercuric chloride; test: In vivo protective action against mercurial compounds; design: species or system male mice (Swiss strain); conditions: mercuric chloride 20 mg/kg ip, mice, 24 hours
Description: Forty male mice (Swiss strain, 22 grams mean bodyweight) were used for the investigation, subdivided into 4 groups treated as follows:
(1) mercuric chloride, 20 mg/kg/intraperitoneally;
(4) mercuric chloride 20 mg/kg/intraperitoneally+2-thiopropionylglycine 300 mg/kg/intraperitoneally.
Deaths occurred were recorded hourly in the first 5 hours, and thereafter after 24 hours.

[3] = Stability test: melting point before and after heating; assay type: physicochemical
Description: (§1) The stability tests were carried out according to the Rogers' nonisothermic method suitably integrated by the evaluation of physical data, melting point, weight variation, and spectrophotometric assay. For each single compound, the tests were performed on a series of samples, with the weight of 100 milligrams, added for the wet tests with 1 ml of distilled water. […] The sample were kept in a thermostat at increasing temperatures, i.e. from 25° to 80° C. […] The temperature, programmed according to the Rogers' formula, resulted to be 40° C. at the end of the first hour, 50° C. at the end of the second hour, 57° C. at the end of the third hour, 63° C. at the end of the fourth hour, 69° C. at the end of the fifth hour, 73° C. at the end of the sixth hour, 77° C. at the end of the seventh hour and, as already specified, 80° C. at the end of the eighth hour.
The melting point was established in a capillary tube, under identical conditions, on the samples No. 5 after heating for 8 hours in the previously specified conditions, and on the samples No. 10 after heating and evaporation to dryness as previously specified.

[4] = physchem
Description: as §1
(§2) In the case of the wet-treated samples, the final weight was only established on the samples No. 10 brought to dryness at 60° C. under vacuum after an 8-hour heating.

[5] = Solubility and organoleptic properties; assay type: physicochemical
[6] = Stability test: physical properties and weight variations on heating; assay type: physicochemical
Description: as §1
Still in Table 5, the sample from 1 to 5 refer, for each of the two compounds, to the dry substance while the samples from 6 to 10 refer to the solution or to the aqueous suspension obtained as above specified.
as §2

[7] = system: dog; test: Chronic toxicity in the dog; assay type: in vivo; conditions: dogs
[8] = Rogers' nonisothermic method: energies of activation, specific velocities, validity periods; assay type: physicochemical; conditions: for stability vs 2-thiopropionylglycine (II): comparison of the two compounds
Description: as §1
The data shown in Table 7 were worked out according to the Rogers' method, drawing up the values of the energies of activation of the decomposition reactions under dry and wet conditions, the specific rate constants as well as the validity period.

[9] = sample 1, dry, 1 hour 30 minutes
[10] = sample 3, dry, 5 hours 15 minutes
[11] = sample 10, wet, 8 hours, brought to dryness

Compound: CC(SC(=O)c1cccs1)C(=O)NCC(=O)O (stereo not shown) [compound (I), 2-(2-thenoylthio)-propionylglycine]
- Microscopic Examination (Table 12), significance vs. controls (S) ([1]; Table 12, group 2, orally): h.s.
- Microscopic Examination score (Table 12; E, mean ± standard error) ([1]; Table 12, group 2, orally): 2.00 ± 0.36
- Microscopic Examination (Table 12), significance vs. controls (S) ([1]; Table 12, group 3, aerosol): h.s.
- Microscopic Examination score (Table 12; E, mean ± standard error) ([1]; Table 12, group 3, aerosol): 2.33 ± 0.49
- Microscopic Examination (Table 12), significance vs. controls (S) ([1]; Table 12, group 4, rectally): h.s.
- Microscopic Examination score (Table 12; E, mean ± standard error) ([1]; Table 12, group 4, rectally): 1.83 ± 0.40
- Microscopic Examination (Table 14), significance vs. controls (S) ([1]; Table 14, group 2, orally): h.s.
- Microscopic Examination score (Table 14; E, mean ± standard error) ([1]; Table 14, group 2, orally): 0.83 ± 0.30
- Microscopic Examination (Table 14), significance vs. controls (S) ([1]; Table 14, group 3, aerosol): h.s.
- Microscopic Examination score (Table 14; E, mean ± standard error) ([1]; Table 14, group 3, aerosol): 1.00 ± 0.36
- Microscopic Examination (Table 14), significance vs. controls (S) ([1]; Table 14, group 4, rectally): h.s.
- Microscopic Examination score (Table 14; E, mean ± standard error) ([1]; Table 14, group 4, rectally): 0.66 ± 0.42
- Visualization of the bronchial tract, significance vs. controls (S) ([1]; group 2, orally): h.s.
- Visualization of the bronchial tract score (E, mean ± standard error) ([1]; group 2, orally): 1.16 ± 0.30
- Visualization of the bronchial tract, significance vs. controls (S) ([1]; group 3, aerosol): h.s.
- Visualization of the bronchial tract score (E, mean ± standard error) ([1]; group 3, aerosol): 1.00 ± 0.36
- Visualization of the bronchial tract, significance vs. controls (S) ([1]; group 4, rectally): h.s.
- Visualization of the bronchial tract score (E, mean ± standard error) ([1]; group 4, rectally): 1.00 ± 0.44
- protective action, experimental bronchitis (citric acid) ([1]; guinea-pig): marked protective action
- deaths ([2]; 200 mg/kg ip): 10%
- deaths ([2]; 300 mg/kg ip): 10%
- melting point variation ([3]; after heating): no variations
- Final m.p. wet conditions (Sample 10) ([3]; after heating 8 hours wet and evaporation to dryness): 166-167 °C
- Final m.p. dry conditions (Sample 5) ([3]; after heating for 8 hours, dry): 166-167 °C
- Initial m.p. ([3]; before heating): 166-167 °C
- Content [4]: 100.0%
- E at 292 nm ([4]; as such): 0.438
- remaining at 1.5 h ([4]; dry): 99.8%
- remaining at 3 h ([4]; dry): 99.8%
- remaining at 5.25 h ([4]; dry): 100%
- remaining at 8 h ([4]; dry): 99.8%
- E at 292 nm ([4]; sample 1, dry): 0.440
- E at 292 nm ([4]; sample 2, dry): 0.435
- E at 292 nm ([4]; sample 3, dry): 0.440
- E at 292 nm ([4]; sample 4, dry): 0.440
- E at 292 nm ([4]; sample 6, wet): 0.455
- E at 292 nm ([4]; sample 7, wet): 0.450
- E at 292 nm ([4]; sample 8, wet): 0.435
- E at 292 nm ([4]; sample 9, wet): 0.412
- odor [5]: odorless
- taste [5]: practically tasteless
- appearance in water ([5]; 100 milligrams with 1 ml of distilled water): white suspension
- solubility ([5]; all other inorganic solvents (so in the source)): scarcely soluble
- solubility ([5]; chloroform): soluble
- solubility ([5]; saturated solution of NaHCO3): soluble
- Color [6, 9]: white
- Smell [6, 9]: almost absent
- Weight Fin. [6, 9]: 95.4 mg
- Weight Variations [6, 9]: -5.26%
- Color ([6]; sample 2, dry, 3 hours): white
- Weight Fin. ([6]; sample 2, dry, 3 hours): 94.5 mg
- Weight Variations ([6]; sample 2, dry, 3 hours): -5.03%
- Color [6, 10]: white
- Smell [6, 10]: almost absent
- Weight Fin. [6, 10]: 95.1 mg
- Weight Variations [6, 10]: -5.37%
- Color ([6]; sample 4, dry, 8 hours): white
- Smell ([6]; sample 4, dry, 8 hours): almost absent
- Weight Fin. ([6]; sample 4, dry, 8 hours): 94.9 mg
- Weight Variations ([6]; sample 4, dry, 8 hours): -5.74%
- Smell ([6]; sample 5, dry, 8 hours): almost absent
- Weight Fin. ([6]; sample 5, dry, 8 hours): 194.1 mg
- Weight Variations ([6]; sample 5, dry, 8 hours): -3.67%
- Smell ([6]; sample 6, wet): almost absent
- Smell ([6]; sample 7, wet): almost absent
- Smell ([6]; sample 8, wet): almost absent
- Smell ([6]; sample 9, wet): almost absent
- Weight Fin. [6, 11]: 201.3 mg
- Weight Variations [6, 11]: -2.94%
- chronic toxicity results [7]: optimal
- stability vs 2-thiopropionylglycine (II) ([8]; listed as 2-(2-thenoylthio)-propionyl-glycine (I)): markedly better stability
- stability vs 2-thiopropionylglycine (II) ([8]; listed as 2-(2-thenoylthio)-propionylglycine (I)): markedly more stable than the correspondent 2-thiopropionylglycine (II)
- Energy of activation of the decomposition reaction ([8]; dry): 12.28 kcal/mol
- Validity period ([8]; dry): unlimited
- K at 25° (specific rate constant) ([8]; dry, 25°): 0 h⁻¹
- Energy of activation of the decomposition reaction ([8]; wet): 13.27 kcal/mol

Reference: patent publication US4242354A, “2-(2-Thenolythio)-propionylglycine: method for its preparation and pharmaceutical formulations containing said compound” (Mediolanum Farmaceutici S.r.L., priority 1978, dated 1980)
